Measurements as given in ChEMBL document CHEMBL1821713, “Synthesis and in vitro activity of novel 1,2,4-triazolo[4,3-a]pyrimidine oxazolidinone antibacterial agents. Part II” (Bioorg Med Chem Lett, 2011).
≈ marks a conversion by molar mass, not a printed value.

What was measured:
Enterococcus faecalis = assay: Antibacterial activity against Enterococcus faecalis ATCC 29212 by CLSI method; format: functional
[1] = test system: Staphylococcus epidermidis; assay: Antibacterial activity against Staphylococcus epidermidis ATCC 12228 by CLSI method; format: functional
Staphylococcus aureus [2] = assay: Antibacterial activity against methicillin-resistant Staphylococcus aureus 43300 by CLSI method; format: functional
Staphylococcus aureus [3] = assay: Antibacterial activity against Staphylococcus aureus ATCC 25923 by CLSI method; format: functional
[4] = test system: Staphylococcus epidermidis; assay: Antibacterial activity against Staphylococcus epidermidis ATCC 12228 by CLSI method relative to Linezolid; format: functional
Streptococcus pyogenes = assay: Antibacterial activity against Streptococcus pyogenes ATCC 19615 by CLSI method relative to Linezolid; format: functional
Staphylococcus aureus [5] = assay: Antibacterial activity against Staphylococcus aureus ATCC 49775 PVL positive by CLSI method relative to Linezolid; format: functional
CYP2C19 = CYP2C19 (Homo sapiens, UniProt P33261); assay: Inhibition of human recombinant CYP2C19 at 10 uM by fluorimetric analysis; format: ADME
Sequence of CYP2C19 (P33261 whole entry): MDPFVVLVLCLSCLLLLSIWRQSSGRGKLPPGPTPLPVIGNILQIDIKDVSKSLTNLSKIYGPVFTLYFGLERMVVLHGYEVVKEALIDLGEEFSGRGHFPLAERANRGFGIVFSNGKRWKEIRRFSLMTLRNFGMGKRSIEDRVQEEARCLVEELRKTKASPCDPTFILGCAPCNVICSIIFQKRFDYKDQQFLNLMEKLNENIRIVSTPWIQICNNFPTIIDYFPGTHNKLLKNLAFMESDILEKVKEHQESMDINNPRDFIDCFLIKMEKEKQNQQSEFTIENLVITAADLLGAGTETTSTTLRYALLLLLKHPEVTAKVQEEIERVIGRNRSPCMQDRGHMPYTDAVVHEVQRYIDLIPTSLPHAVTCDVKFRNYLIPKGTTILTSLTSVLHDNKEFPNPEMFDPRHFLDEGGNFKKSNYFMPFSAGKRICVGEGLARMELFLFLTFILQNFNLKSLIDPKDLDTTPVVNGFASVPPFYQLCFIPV

CYP2D6 = CYP2D6 (Homo sapiens, UniProt P10635); assay: Inhibition of human recombinant CYP2D6 at 10 uM by fluorimetric analysis; format: ADME
Sequence of CYP2D6 (P10635 whole entry): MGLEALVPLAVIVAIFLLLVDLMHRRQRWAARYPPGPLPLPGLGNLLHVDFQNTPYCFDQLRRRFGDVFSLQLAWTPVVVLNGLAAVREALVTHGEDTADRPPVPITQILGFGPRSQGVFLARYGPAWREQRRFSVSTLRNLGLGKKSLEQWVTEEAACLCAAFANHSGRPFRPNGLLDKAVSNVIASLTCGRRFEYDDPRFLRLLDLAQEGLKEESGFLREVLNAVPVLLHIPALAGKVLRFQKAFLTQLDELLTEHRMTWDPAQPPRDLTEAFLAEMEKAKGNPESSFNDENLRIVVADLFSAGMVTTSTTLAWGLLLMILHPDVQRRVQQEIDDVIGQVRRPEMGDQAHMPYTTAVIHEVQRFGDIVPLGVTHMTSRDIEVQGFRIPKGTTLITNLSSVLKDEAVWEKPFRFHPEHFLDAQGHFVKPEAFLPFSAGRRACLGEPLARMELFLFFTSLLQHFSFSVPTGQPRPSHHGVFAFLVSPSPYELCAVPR

CYP2C9 = CYP2C9 (Homo sapiens, UniProt P11712); assay: Inhibition of recombinant human cytochrome P450-2C9 at 10 uM by fluorimetric analysis; format: ADME
Sequence of CYP2C9 (P11712 whole entry): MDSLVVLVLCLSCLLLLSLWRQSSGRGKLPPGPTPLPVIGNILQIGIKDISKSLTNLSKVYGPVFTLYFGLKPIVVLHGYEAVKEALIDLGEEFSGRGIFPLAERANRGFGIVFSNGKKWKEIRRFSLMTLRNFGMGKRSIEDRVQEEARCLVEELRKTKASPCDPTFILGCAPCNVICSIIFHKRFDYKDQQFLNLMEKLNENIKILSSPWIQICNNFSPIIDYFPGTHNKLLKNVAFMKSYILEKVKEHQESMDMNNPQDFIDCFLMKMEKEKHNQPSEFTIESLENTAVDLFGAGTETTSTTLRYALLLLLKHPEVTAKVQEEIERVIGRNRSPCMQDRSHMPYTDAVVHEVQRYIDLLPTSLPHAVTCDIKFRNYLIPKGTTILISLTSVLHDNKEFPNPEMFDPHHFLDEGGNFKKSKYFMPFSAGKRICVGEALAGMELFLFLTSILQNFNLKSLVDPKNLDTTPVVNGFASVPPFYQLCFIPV

Enterococcus faecium = assay: Antibacterial activity against Enterococcus faecium 06076VRE by CLSI method relative to Linezolid; format: functional
CYP1A2 = target: T1, CYP1A2 (Homo sapiens, UniProt P05177); assay: Inhibition of human recombinant CYP1A2 at 10 uM by fluorimetric analysis; format: ADME
T1 sequence (P05177 whole entry): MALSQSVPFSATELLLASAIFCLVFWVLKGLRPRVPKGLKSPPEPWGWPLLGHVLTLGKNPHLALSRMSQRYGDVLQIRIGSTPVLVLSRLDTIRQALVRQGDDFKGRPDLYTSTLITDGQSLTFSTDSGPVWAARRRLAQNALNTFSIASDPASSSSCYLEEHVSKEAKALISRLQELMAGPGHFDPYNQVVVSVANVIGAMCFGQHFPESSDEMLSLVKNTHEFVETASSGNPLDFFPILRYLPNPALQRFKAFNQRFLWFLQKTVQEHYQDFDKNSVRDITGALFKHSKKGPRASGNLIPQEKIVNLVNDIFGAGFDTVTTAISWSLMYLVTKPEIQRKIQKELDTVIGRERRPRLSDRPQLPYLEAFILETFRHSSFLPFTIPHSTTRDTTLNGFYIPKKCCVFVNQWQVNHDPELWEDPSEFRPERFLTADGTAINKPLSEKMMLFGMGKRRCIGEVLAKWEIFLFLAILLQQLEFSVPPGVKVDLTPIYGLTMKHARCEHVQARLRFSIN

Staphylococcus aureus [6] = assay: Antibacterial activity against Staphylococcus aureus ATCC 13709 Smith by CLSI method relative to Linezolid; format: functional
Staphylococcus aureus [7] = assay: Antibacterial activity against Staphylococcus aureus ATCC 29213 by CLSI method relative to Linezolid; format: functional
Staphylococcus aureus [8] = assay: Antibacterial activity against Staphylococcus aureus FDA 209P by CLSI method relative to Linezolid; format: functional
[9] = test system: Staphylococcus epidermidis; assay: Antibacterial activity against Staphylococcus epidermidis ATCC 14990 by CLSI method relative to Linezolid; format: functional
Staphylococcus aureus [10] = assay: Antibacterial activity against Staphylococcus aureus ATCC 700699 Mu 50 by CLSI method relative to Linezolid; format: functional
CYP3A4 = CYP3A4 (Homo sapiens, UniProt P08684); assay: Inhibition of human recombinant CYP3A4 at 10 uM by fluorimetric analysis; format: ADME
Sequence of CYP3A4 (P08684 whole entry): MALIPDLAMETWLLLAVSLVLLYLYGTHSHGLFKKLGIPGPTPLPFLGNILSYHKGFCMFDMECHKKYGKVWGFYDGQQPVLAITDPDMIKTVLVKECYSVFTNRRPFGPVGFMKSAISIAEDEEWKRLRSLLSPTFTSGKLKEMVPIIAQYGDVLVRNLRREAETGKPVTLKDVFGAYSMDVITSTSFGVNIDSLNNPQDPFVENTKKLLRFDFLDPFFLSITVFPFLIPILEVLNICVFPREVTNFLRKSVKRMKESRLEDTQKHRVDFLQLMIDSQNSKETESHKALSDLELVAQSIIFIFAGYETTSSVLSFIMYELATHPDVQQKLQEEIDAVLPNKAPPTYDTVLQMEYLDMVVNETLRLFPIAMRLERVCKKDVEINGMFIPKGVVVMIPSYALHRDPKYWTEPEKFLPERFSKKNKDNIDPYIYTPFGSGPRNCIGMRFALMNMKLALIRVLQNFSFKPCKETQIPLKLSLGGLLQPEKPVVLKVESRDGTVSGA

Streptococcus pneumoniae = assay: Antibacterial activity against Streptococcus pneumoniae ATCC 49619 by CLSI method relative to Linezolid; format: functional

Row | Structure (SMILES) | MIC (Enterococcus faecalis) [µg/mL] | MIC [1] [µg/mL] | MIC (Staphylococcus aureus [2]) [µg/mL] | MIC (Staphylococcus aureus [3]) [µg/mL] | further results
1 | CC(=O)NC[C@H]1CN(c2ccc(-c3ccc(-c4nnc5ncccn45)c(F)c3)c(F)c2)C(=O)O1 | 0.5 (≈ 1.08 µM) | 0.5 (≈ 1.08 µM) | 0.125 (≈ 0.269 µM) | 0.5 (≈ 1.08 µM) | 
2 | CC(=O)NC[C@H]1CN(c2ccc(-c3ccc(-c4nnc5ncccn45)nc3)c(F)c2)C(=O)O1 | 0.5 (≈ 1.12 µM) | 0.5 (≈ 1.12 µM) | 0.125 (≈ 0.279 µM) | 0.25 (≈ 0.559 µM) | 
3 | CC(=O)NC[C@H]1CN(c2ccc(-c3cccc(-c4nnc5ncccn45)c3)c(F)c2)C(=O)O1 | 4 (≈ 8.96 µM) | 4 (≈ 8.96 µM) | 1 (≈ 2.24 µM) | 4 (≈ 8.96 µM) | 
4 | COc1ccc(-c2ccc(N3C[C@H](CNC(C)=O)OC3=O)cc2F)cc1-c1nnc2ncccn12 | 16 (≈ 33.6 µM) | > 16 | 8 (≈ 16.8 µM) | 16 (≈ 33.6 µM) | 
5 | CC(=O)NC[C@H]1CN(c2ccc(-c3csc(-c4nnc5ncccn45)c3)c(F)c2)C(=O)O1 | 0.06 (≈ 0.133 µM) | 0.25 (≈ 0.553 µM) | 0.125 (≈ 0.276 µM) | 0.125 (≈ 0.276 µM) | fold change (FC) [4]: 4; fold change (FC) (Streptococcus pyogenes): 4; fold change (FC) (Staphylococcus aureus [5]): 4; inhibition at 10 µM (CYP2C19): 36.2%; inhibition at 10 µM (CYP2D6): 5.6%; inhibition at 10 µM (CYP2C9): 40.9%; fold change (FC) (Enterococcus faecium): 4; inhibition at 10 µM (CYP1A2): 4.3%; fold change (FC) (Staphylococcus aureus [6]): 4; fold change (FC) (Staphylococcus aureus [7]): 4; fold change (FC) (Staphylococcus aureus [8]): 4; fold change (FC) [9]: 4; fold change (FC) (Staphylococcus aureus [10]): 4; inhibition at 10 µM (CYP3A4): 37.7%; fold change (FC) (Streptococcus pneumoniae): 4
6 | CC(=O)NC[C@H]1CN(c2cccc(F)c2)C(=O)O1 | > 16 | 16 (≈ 63.4 µM) | 16 (≈ 63.4 µM) | > 16 | 
7 | CC(=O)NC[C@H]1CN(c2ccc(N3CCOCC3)c(F)c2)C(=O)O1 [LINEZOLID] |  | 1 (≈ 2.96 µM) |  |  | 
